Measurements taken from patent US6642201B1, “Use of a dipeptide for stimulating repair processes” (priority 1998, dated 2003).
Marks after values point to notes of the source that are not given here. Where a SMILES comes first, the peptide text is derived from it.

Experiments:
[1] = system: purulent incised crushed wounds of the femural soft tissues; assay: Healing of purulent incised crushed wounds of the soft tissues; format: in vivo, shinshilla rabbits; design: key to Fibroblasts / Histiocytes / Leukocyles / Macrophases / Necrosis: 1 point - absent; 2 points - single (traces); 3 points - few; 4 points - diffuse (moderately); 5 points - many-,; 6 points - very many
Text: (§1) The efficacy of L-Lys-L-Glu dipeptide was estimated on the model of purulent incised crushed wounds of the femural soft tissues in shinshilla rabbits of both sexes with body weight 2-3 kg. Therefore, the rabbits underwent shaving in the area of femural soft tissues with subsequent incision 5 cm long and 2 sm deep. Soft tissues (muscles, subcutaneous fat) were crushed with Kocher 's forcepts and infected with the pathogenic mixture Staphylococcus aureus, strain 186. Afterwards, the wound was sutured. In 72 hours the sutures were lifted; and the wound was treated with 3% solution of hydrogen peroxide.
(§2) The animals of experimental group were injected intramuscularly every day for five days with dipeptide L-Lys-L-Glu in a single dose 1 μkg per injection. Control rabbits were injected with sodium chloride solution according to the same scheme. In the process of treatment the wounds were treated with antiseptic remedies for external use.
(§3) The estimation of L-Lys-L-Glu dipeptide efficacy in the dynamics of the inflammatory process regression was based on the terms of crust rejection and wound clearance from the pyo-necrotic mass, and appearance of the granular tissue in the wound and beginning of edge epithelization. […] The activity of tissue enzymes was also estimated (5,6,7).

regenerating liver cells = assay: Compensatory regeneration of the liver after partial hepatectomy; format: in vivo, white outbred male rats
Experimental: The research has been conducted on 26 white outbred male rats weighing 150-200 grams. The animals were divided into thee following groups:
3 group—rats which had undergone the operation and were subsequently (2 and 24 hours after the operation) administered two subcutaneous injections of L-Lys-L-Glu dipeptide (0,1 μkg per rat).
At the same time, the animals of the first and second groups were made injections of the same volume of the […]. The extracted liver was preserved formalin.
The rats, which had been operated on, were killed by means of ether 32 and 96 hours after the operation. The rats from the control group were killed too, simultaneously. Their livers were preserved in formalin. After staining the preparations with hematoxilin-eosin, the mitotic index in the liver cells was defined, as well as the quantity of polyploid cells in the S-phase cell cycle (the quantity of dividing cells).

[2] = system: purulent incised crushed wounds of the femural soft tissues; assay: Healing of purulent incised crushed wounds of the soft tissues; format: in vivo, shinshilla rabbits; design: key: 1 point - absent; 2 points - single (traces); 3 points - few; 4 points - diffuse (moderately); 5 points - many-;; 6 points - very many; details: rabbits, 1 μkg i.m. daily 5 days
Text: as §1, §2, §3

[3] = system: purulent incised crushed wounds of the femural soft tissues; assay: as above; format: in vivo, shinshilla rabbits; design: key: 1 point - absent; 2 points - single (traces); 3 points - few; 4 points - diffuse (moderately); 5 points - many-,; 6 points - very many; details: rabbits, 1 μkg i.m. daily 5 days
Text: as §1, §2, §3

[4] = system: sluggish-granulating wounds after surgical treatment for cancer; assay: Clinical complex treatment of cancer patients with post-operative complications; format: in vivo
Experimental: In the pre-operation period, the patients underwent a radical-scheme, radiation therapy employing large fields of complex configuration on the linear electron accelerator (its power is 4,3 Mev) and gamma-therapy device “Rokus-M” in the brake mode. In particular cases, one of the components of the combined treatment was chemotherapy.
Beginning from the third day after the operation, 1 μkg of L-Lys-L-Glu dipeptide was injected intramuscularly daily during 10 days.

[5] = system: inflammation of salivary glands and sialolithic disease; assay: Clinical treatment of inflammation of salivary glands and sialolithic disease; format: in vivo, patients; details: 1 μkg i.m. daily for 5 days
Text: 45 patients were being observed. Of these, 27 people had inflammations of the salivary glands, 4 of whom had parotitis. 18 people suffered sialolithic disease of the submandibular gland. The average age of the patients was 35-40. All the patients with the sialolithic disease had the stones extracted. 30 patients (15 of them had inflammation of the salivary gland and the other 15 had sialolithic disease) underwent daily intramuscular injections of L-Lys-L-Glu dipeptide 1 μkg. for 5 days.
The patients of the control group underwent standard treatment: antibacterial, desensitization therapy, iodine-dimexid dressings, physical therapy (ultrasonics, 5-10% potassium iodide electrotherapy on the gland area), local treatment (washing the glands with the solution of antiseptics and antibiotics).

[6] = rabbits, 1 μkg i.m. daily 5 days
[7] = rabbits, 1 μkg i.m. daily 5 days, day 6
[8] = rabbits, 1 μkg i.m. daily 5 days, day 14
[9] = rabbits, 1 μkg i.m. daily 5 days, day 21
[10] = rabbits, 1 μkg i.m. daily 5 days, day 29
[11] = rabbits, 1 μkg i.m. daily 5 days, day 40
[12] = 32 hours After partial hepatectomy, 0,1 μkg per rat s.c. at 2 and 24 hours
[13] = 32 hours group, Before (pre-operation index)
[14] = 96 hours After partial hepatectomy, 0,1 μkg per rat s.c. at 2 and 24 hours
[15] = 96 hours group, Before (pre-operation index)
[16] = patients with sialolithic disease

## NCCCC[C@H](N)C(=O)N[C@@H](CCC(=O)O)C(=O)O [L-Lys-L-Glu dipeptide, L-lysil-L-glutamic acid] (H-Lys-Glu-OH)
[1]; phase of proliferation (14-28 days)
  activity of acid phosphatase in histiocytes: high activity of acid phosphatase in histiocytes
[1]; [6]
  Terms of complete clearance of the wound surface from necrotizing tissues: 14.2 + −1.3* days
  Terms of the wound epithelization: 24.9 + −1.9* days
  Terms of tile onset of necrotizing tissue rejection form the wound surface: 8.3 + −1.1*
[1]; [7]
  Fibroblasts: 4*
  Histiocytes: 4
  Leukocyles: 5
  Macrophases: 3
  Necrosis: 3*
[1]; [8]
  Fibroblasts: 5*
  Histiocytes: 5*
  Leukocyles: 5
  Macrophases: 3
  Necrosis: 2*
[1]; [9]
  Fibroblasts: 5
  Histiocytes: 5
  Leukocyles: 4
  Macrophases: 2
  Necrosis: 2*
[1]; [10]
  Fibroblasts: 5
  Histiocytes: 4
  Leukocyles: 4*
  Macrophases: 2
  Necrosis: 1
[1]; [11]
  Fibroblasts: 6*
  Histiocytes: 6*
  Leukocyles: 2
  Macrophases: 2*
  Necrosis: 1
[1]; rabbits, wound tissue
  activity of alkaline phosphatase in foci of leukocytory infiltration and vascular endothelium: high activity of alkaline phophotase
Regenerating liver cells; [12]
  % of cells in the phase of DNA synthesis: 3.882 ± 0.8391″ %
  Mitotic index: 2.314 ± 0.4611 %
  Total number of dividing cells: 6.196 ± 1.279 %
Regenerating liver cells; 32 hours after partial hepatectomy
  increasing number of mitoses, DNA-synthesizing cells and overall amount of dividing cells: does become trustworthy
Regenerating liver cells; [13]
  % of cells in the phase of DNA synthesis: 0.870 ± 0.100%
  Total number of dividing cells: 1.320 ± 0.159%
Regenerating liver cells; 32 hours group, Before (pre-operation index), % of the total number of liver cells
  Mitotic index: 0.450 ± 0.067%
Regenerating liver cells; [14]
  % of cells in the phase of DNA synthesis: 4.664 ± 1.315 %
  Mitotic index: 4.846 ± 0.334*& %
  Total number of dividing cells: 9.510 ± 1.609 %
Regenerating liver cells; 96 hours after hepatectomy
  number of cells in the S-phase compared to the second (control) group: did not differ reliably
  number of dividing cells bigger than with rats injected with the sodium hydrochloride: 75%
  number of mitoses compared to rats injected with the sodium hydrochloride: twice as big
Regenerating liver cells; [15]
  % of cells in the phase of DNA synthesis: 0.982 ± 0.141%
  Mitotic index: 0.294 ± 0.084%
[2]; day 6
  Acid phosphotase in histiocytes: 5*
[2]; day 14
  Alcaline phosphotase in vessels: 5
[2]; day 21
  Acid phosphotase in histiocytes: 5
  Alcaline phosphotase in leukocytes: 5
  Alcaline phosphotase in vessels: 5*
[2]; day 28
  Acid phosphotase in histiocytes: 5*
[2]; day 40
  Acid phosphotase in histiocytes: 5*
  Alcaline phosphotase in leukocytes: 5
[3]; day 6
  Alcaline phosphotase in leukocytes: 6*
  Alcaline phosphotase in vessels: 6*
[3]; day 14
  Acid phosphotase in histiocytes: 6*
  Alcaline phosphotase in leukocytes: 6*
[3]; day 28
  Alcaline phosphotase in leukocytes: 6
  Alcaline phosphotase in vessels: 4
[3]; day 40
  Alcaline phosphotase in vessels: 4*
[4]; 1 μkg i.m. daily during 10 days from third day after operation
  edema and pain in the wound area: helped to reduce edema and pain in the wound area
[4]; complex treatment
  time of treatment: reduces the time of their treatment
[5]; patients with inflammation of the salivary gland
  pains in the gland and discharge of pus: on the fourth-fifth day after the treatment, stopped having pains in the gland and the discharge of pus from the gland ducts
[5]; [16]
  discharge of pus from the gland ducts: stopped having the discharge of pus from the gland ducts
  swelling and infiltration of soft tissues and mucous membrane of the mouth cavity: resolved on the third fourth day after the operation
[5]; patients
  period of treatment: shortened the period of treatment
